Key:
[1] = TFM release rate in flow chamber, 11 L of water per minute; type: physicochemical; conditions: flow of 11 L of water per minute; 20 g TFM; FIG. 8, FIG. 9
Source text: To scale up from the tablet press, a hand-driven compression clamp was assembled in a fashion to create a compressed 20 g TFM cylinder 1 inch in diameter or combination of tablets adding to 20 g total TFM. Variables investigated were matrix type (tea bag vs porous cotton mesh), tablet size, formulation, and compression strength of formulation. The resulting tablets were placed into a flow chamber with a flow of 11 L of water per minute and aliquots were taken at designated time periods to evaluate TFM release rates.
Tablets H, I and J were all prepared according to Tablet E except that increasing amounts of sand were added as a density modifier to ensure tablets remained submerged.

[2] = cited from earlier work

SMILES	TFM release rate [1]	solubility in water [2]
O=[N+]([O-])c1ccc([O-])cc1C(F)(F)F.[K+] [TFM phenoxide salt]	releases the fastest	
O=C(O)COc1ccc(Cl)cc1Cl [neutral 2,4-D, 2,4-Dichlorophenoxyacetic Acid]		less water soluble
[Cu+2].[OH-].[OH-] [Copper hydroxide]		extremely low solubility
